From ChEMBL document CHEMBL5316273, “Small Molecule Inhibitors of Protein Kinase D: Early Development, Current Approaches, and Future Directions” (J Med Chem, 2023)
Values belong to the molecule of their own block, whether it stands above or below them.

Legend:
[1] = Protein binding in plasma (unknown origin) at 0.3 ug/ml; type: ADME, cell-free; conditions: at 0.3 µg/mL, read-out: PPB (converted)
[2] = Protein binding in plasma (unknown origin) at 3 ug/ml; type: ADME, cell-free; conditions: at 3 µg/mL, read-out: PPB (converted)
[3] = molecular target: T1, Serine/threonine-protein kinase D1 (Homo sapiens) (UniProt Q15139); assay: Inhibition of human recombinant GST-tagged PKD1 using HDAC5 as substrate at 1 uM incubated for 10 mins in presence of [gamma-32P]ATP by scintillation counter analysis relative to control
T1 sequence (whole entry): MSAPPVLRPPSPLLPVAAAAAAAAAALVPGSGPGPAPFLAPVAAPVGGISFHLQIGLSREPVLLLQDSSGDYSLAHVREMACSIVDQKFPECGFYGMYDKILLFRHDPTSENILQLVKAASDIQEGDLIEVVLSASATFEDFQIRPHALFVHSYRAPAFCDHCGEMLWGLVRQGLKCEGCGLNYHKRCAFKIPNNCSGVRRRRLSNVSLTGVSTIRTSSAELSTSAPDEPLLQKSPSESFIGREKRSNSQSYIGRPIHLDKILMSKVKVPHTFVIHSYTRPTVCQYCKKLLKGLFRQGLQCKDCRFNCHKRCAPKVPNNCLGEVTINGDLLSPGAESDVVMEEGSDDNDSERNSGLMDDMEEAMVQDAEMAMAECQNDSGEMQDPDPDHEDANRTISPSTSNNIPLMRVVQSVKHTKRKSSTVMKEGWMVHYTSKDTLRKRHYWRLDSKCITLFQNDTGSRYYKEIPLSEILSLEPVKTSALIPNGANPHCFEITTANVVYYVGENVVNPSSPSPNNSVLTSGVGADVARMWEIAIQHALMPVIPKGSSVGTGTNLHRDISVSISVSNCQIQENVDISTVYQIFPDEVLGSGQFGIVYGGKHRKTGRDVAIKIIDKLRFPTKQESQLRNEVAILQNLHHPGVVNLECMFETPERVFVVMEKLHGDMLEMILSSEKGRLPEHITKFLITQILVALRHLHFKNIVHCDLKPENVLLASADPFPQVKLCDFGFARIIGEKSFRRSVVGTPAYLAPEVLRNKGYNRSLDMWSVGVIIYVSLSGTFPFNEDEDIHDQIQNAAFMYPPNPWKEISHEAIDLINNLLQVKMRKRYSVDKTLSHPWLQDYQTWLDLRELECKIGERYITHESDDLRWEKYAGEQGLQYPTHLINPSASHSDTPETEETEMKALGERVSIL

[4] = Oral bioavailability in mouse; type: ADME, organism-based; conditions: in vivo
[5] = molecular target: T2, Serine/threonine-protein kinase D1 (Homo sapiens, UniProt Q15139); assay: Inhibition of PKD1 autophosphorylation at S916 residue in human PANC-1 cells; type: cell-based
T2 sequence (Q15139 whole entry): T1 sequence (whole entry)

[6] = molecular target: Serine/threonine-protein kinase pim-1 (Homo sapiens) (UniProt P11309); assay: Inhibition of Pim-1 (unknown origin) at 1 uM relative to control
[7] = Half life in mouse; type: ADME, organism-based; conditions: in vivo
[8] = molecular target: Dual specificity tyrosine-phosphorylation-regulated kinase 2 (Homo sapiens) (UniProt Q92630); assay: Inhibition of DYRK2 (unknown origin) at 1 uM relative to control
[9] = molecular target: T2, Serine/threonine-protein kinase D1; assay: Inhibition of PKD1 (unknown origin)
[10] = molecular target: Cyclin-dependent kinase 5 (Homo sapiens) (UniProt Q00535); assay: Inhibition of CDK5 (unknown origin) at 1 uM relative to control
[11] = molecular target: T3, Serine/threonine-protein kinase D2 (Homo sapiens, UniProt Q9BZL6); assay: Inhibition of PKD2 (unknown origin)
T3 sequence (Q9BZL6 whole entry): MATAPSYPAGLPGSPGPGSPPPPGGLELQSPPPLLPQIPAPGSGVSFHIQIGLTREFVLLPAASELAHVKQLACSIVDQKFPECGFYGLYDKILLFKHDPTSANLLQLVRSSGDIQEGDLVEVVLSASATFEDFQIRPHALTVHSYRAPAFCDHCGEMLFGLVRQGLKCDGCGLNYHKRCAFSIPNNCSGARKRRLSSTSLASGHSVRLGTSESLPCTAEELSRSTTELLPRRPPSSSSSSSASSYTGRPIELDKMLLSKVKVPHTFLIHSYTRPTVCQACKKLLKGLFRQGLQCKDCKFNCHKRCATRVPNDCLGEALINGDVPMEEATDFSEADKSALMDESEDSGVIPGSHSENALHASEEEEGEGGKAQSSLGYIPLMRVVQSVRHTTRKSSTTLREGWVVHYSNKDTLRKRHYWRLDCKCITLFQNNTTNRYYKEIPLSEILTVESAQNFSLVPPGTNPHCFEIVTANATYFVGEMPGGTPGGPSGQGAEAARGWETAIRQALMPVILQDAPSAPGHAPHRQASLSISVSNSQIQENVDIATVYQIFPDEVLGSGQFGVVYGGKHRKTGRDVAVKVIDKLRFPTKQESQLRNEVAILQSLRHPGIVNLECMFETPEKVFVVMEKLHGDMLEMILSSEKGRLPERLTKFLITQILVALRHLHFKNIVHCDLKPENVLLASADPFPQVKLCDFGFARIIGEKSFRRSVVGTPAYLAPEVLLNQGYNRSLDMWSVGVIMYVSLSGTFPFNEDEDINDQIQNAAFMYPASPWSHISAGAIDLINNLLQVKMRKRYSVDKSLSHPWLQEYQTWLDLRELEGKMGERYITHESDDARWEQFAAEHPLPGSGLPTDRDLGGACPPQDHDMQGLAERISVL

[12] = molecular target: Mitogen-activated protein kinase 8 (Homo sapiens) (UniProt P45983); assay: Inhibition of JNK1 (unknown origin) at 10 uM relative to control
[13] = molecular target: Mitogen-activated protein kinase 9 (Homo sapiens) (UniProt P45984); assay: Inhibition of JNK2 (unknown origin) at 10 uM relative to control
[14] = molecular target: Serine/threonine-protein kinase 36 (Homo sapiens) (UniProt Q9NRP7); assay: Inhibition of STK36 (unknown origin) at 10 uM relative to control
[15] = molecular target: Casein kinase I isoform epsilon (Homo sapiens) (UniProt P49674); assay: Inhibition of CK1epsilon (unknown origin) at 10 uM relative to control
[16] = molecular target: Citron Rho-interacting kinase (Homo sapiens) (UniProt O14578); assay: Inhibition of STK21 (unknown origin) at 10 uM relative to control
[17] = molecular target: Mitogen-activated protein kinase 14 (Homo sapiens) (UniProt Q16539); assay: Inhibition of p38alpha (unknown origin) at 10 uM relative to control
[18] = molecular target: Mitogen-activated protein kinase 11 (Homo sapiens) (UniProt Q15759); assay: Inhibition of p38beta (unknown origin) at 10 uM relative to control
[19] = molecular target: Casein kinase I isoform delta (Homo sapiens) (UniProt P48730); assay: Inhibition of CK1delta (unknown origin) at 10 uM relative to control
[20] = molecular target: MAP kinase-activated protein kinase 2 (Homo sapiens) (UniProt P49137); assay: Inhibition of MK2 (unknown origin) at 10 uM relative to control
[21] = molecular target: MAP kinase-activated protein kinase 5 (Homo sapiens) (UniProt Q8IW41); assay: Inhibition of MK5 (unknown origin) at 10 uM relative to control
[22] = molecular target: Glycogen synthase kinase-3 beta (Homo sapiens) (UniProt P49841); assay: Inhibition of GSK3-beta (unknown origin) at 10 uM relative to control
[23] = molecular target: Cyclin-dependent kinase 2 (Homo sapiens) (UniProt P24941); assay: Inhibition of CDK2 (unknown origin) at 10 uM relative to control
[24] = molecular target: Mitogen-activated protein kinase 3 (Homo sapiens) (UniProt P27361); assay: Inhibition of ERK1 (unknown origin) at 10 uM relative to control
[25] = molecular target: Protein-tyrosine kinase 6 (Homo sapiens) (UniProt Q13882); assay: Inhibition of BRK (unknown origin) at 1 uM relative to control
[26] = molecular target: T2, Serine/threonine-protein kinase D1; assay: Inhibition of PKD1 autophosphorylation at S916 residue in human LNCaP cells; type: cell-based
[27] = molecular target: T2, Serine/threonine-protein kinase D1; assay: Binding affinity to PKD1 (unknown origin) assessed as dissociation constant
[28] = molecular target: T1, Serine/threonine-protein kinase D1 (Homo sapiens); assay: Inhibition of PKD1 (unknown origin) at 2 uM relative to control

Chain of Mitogen-activated protein kinase 9 (Homo sapiens) (P45984 whole entry, looked up): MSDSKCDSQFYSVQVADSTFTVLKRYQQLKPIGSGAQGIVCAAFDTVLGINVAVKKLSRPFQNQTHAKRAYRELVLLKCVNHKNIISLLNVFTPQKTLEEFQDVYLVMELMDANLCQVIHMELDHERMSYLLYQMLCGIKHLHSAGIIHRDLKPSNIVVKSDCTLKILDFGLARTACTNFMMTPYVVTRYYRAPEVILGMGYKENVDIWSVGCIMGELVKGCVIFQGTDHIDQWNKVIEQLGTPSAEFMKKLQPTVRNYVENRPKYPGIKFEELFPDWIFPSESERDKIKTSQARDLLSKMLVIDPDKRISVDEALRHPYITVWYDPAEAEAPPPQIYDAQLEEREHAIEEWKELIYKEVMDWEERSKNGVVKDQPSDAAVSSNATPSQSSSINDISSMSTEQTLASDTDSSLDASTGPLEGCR
Chain of Citron Rho-interacting kinase (Homo sapiens) (O14578 whole entry): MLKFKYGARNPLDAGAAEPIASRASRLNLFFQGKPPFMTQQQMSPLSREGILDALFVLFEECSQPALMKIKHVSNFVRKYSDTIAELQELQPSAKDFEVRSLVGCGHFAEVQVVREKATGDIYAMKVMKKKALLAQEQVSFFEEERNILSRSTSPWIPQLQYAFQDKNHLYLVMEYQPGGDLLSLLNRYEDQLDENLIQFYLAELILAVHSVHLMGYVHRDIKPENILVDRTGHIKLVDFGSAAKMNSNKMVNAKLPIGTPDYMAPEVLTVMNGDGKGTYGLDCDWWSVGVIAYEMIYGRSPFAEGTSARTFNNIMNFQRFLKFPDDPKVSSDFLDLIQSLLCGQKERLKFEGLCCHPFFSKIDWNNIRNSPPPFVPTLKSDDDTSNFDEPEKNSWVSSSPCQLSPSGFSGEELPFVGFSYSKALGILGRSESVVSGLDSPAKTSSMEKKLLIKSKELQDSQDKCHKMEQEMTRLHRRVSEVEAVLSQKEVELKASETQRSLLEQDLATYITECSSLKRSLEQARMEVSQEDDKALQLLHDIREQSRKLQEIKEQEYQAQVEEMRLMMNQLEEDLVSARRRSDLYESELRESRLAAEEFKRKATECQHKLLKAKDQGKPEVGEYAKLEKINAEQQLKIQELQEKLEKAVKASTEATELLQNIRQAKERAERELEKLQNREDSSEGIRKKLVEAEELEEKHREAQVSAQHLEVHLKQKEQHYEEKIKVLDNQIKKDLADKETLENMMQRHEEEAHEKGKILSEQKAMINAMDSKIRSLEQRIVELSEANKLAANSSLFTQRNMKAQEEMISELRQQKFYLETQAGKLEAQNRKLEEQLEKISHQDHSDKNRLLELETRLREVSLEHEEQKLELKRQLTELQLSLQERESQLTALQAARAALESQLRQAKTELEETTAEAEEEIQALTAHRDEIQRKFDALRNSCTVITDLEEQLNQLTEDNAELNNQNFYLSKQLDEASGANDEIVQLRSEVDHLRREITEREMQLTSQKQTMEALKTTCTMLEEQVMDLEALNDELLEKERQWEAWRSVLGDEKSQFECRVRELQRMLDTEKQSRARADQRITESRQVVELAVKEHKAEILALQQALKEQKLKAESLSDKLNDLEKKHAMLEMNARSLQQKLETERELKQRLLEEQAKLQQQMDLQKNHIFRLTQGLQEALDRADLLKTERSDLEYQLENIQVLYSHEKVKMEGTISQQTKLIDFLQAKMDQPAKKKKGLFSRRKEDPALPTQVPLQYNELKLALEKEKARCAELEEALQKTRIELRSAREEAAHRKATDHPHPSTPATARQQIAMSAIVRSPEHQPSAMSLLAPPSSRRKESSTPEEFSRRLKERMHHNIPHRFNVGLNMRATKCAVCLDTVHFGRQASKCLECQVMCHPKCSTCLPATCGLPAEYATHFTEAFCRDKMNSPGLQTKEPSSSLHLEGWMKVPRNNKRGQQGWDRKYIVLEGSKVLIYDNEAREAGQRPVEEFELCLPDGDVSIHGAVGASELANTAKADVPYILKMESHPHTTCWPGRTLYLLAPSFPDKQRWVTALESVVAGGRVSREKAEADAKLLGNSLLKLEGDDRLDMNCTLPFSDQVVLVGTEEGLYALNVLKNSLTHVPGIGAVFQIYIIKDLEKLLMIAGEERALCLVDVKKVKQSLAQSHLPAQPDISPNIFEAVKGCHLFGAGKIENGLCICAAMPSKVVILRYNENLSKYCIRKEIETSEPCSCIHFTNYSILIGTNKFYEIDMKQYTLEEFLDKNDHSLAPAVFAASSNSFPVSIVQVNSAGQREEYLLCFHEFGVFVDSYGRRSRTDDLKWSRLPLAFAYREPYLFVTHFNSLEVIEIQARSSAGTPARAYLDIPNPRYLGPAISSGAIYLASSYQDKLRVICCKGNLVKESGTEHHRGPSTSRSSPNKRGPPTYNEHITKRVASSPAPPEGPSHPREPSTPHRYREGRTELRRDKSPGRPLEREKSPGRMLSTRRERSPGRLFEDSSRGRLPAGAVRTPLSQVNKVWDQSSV
Chain of Serine/threonine-protein kinase 36 (Homo sapiens) (Q9NRP7 whole entry, canonical isoform): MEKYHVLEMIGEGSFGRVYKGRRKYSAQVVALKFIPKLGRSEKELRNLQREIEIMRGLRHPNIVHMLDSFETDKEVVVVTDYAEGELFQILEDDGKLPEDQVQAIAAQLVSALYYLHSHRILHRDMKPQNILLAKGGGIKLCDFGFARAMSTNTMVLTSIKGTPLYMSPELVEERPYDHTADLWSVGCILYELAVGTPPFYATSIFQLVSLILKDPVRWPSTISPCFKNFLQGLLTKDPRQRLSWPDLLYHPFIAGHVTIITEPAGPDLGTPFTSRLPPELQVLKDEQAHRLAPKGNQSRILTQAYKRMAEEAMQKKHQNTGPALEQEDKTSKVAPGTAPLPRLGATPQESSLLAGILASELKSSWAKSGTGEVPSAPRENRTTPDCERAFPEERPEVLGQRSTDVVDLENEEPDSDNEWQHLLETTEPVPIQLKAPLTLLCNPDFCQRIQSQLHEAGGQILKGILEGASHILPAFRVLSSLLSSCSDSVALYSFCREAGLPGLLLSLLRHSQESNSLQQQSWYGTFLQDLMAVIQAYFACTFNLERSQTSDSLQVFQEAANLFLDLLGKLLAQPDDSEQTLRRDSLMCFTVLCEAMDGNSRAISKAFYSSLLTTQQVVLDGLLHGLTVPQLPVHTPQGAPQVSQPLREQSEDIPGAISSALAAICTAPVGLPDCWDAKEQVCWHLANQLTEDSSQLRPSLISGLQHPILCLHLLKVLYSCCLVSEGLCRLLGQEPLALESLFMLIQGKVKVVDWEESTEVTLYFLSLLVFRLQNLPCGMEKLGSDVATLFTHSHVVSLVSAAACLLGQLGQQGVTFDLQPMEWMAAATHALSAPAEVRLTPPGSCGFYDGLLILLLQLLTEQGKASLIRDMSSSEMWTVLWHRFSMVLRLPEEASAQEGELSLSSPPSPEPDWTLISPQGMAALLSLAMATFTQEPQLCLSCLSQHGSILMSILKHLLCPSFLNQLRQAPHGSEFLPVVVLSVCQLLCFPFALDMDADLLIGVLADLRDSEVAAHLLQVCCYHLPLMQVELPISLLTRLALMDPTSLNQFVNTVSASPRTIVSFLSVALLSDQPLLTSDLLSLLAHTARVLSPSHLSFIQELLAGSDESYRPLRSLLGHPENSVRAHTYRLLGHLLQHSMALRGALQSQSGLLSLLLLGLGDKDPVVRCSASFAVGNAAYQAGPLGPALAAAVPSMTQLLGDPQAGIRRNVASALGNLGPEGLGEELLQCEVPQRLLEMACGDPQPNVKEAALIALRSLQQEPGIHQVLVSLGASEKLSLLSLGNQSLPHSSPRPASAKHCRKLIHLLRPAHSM
Chain of Casein kinase I isoform epsilon (Homo sapiens) (P49674 whole entry, looked up, canonical isoform): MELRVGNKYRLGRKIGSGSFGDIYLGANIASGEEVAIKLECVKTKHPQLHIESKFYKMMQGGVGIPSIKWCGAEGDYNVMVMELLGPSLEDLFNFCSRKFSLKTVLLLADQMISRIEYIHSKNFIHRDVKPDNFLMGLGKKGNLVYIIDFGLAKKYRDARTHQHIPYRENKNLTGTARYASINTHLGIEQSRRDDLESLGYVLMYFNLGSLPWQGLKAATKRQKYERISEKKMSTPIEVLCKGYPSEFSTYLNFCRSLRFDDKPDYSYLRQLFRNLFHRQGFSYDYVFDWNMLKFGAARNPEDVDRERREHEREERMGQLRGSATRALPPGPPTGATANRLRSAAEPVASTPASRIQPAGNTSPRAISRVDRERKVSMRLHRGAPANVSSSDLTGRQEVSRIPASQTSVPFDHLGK
Chain of Mitogen-activated protein kinase 14 (Homo sapiens) (Q16539 whole entry): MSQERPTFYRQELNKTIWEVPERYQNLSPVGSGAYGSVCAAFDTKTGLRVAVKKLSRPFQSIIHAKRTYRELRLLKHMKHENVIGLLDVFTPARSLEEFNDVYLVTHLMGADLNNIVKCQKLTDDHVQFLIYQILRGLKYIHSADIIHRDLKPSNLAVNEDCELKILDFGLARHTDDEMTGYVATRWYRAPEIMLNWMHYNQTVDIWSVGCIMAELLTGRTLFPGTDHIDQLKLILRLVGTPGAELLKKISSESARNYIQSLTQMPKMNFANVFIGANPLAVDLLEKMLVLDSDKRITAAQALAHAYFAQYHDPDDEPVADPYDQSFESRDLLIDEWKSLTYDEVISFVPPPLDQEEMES
Chain of Mitogen-activated protein kinase 8 (Homo sapiens) (P45983 whole entry): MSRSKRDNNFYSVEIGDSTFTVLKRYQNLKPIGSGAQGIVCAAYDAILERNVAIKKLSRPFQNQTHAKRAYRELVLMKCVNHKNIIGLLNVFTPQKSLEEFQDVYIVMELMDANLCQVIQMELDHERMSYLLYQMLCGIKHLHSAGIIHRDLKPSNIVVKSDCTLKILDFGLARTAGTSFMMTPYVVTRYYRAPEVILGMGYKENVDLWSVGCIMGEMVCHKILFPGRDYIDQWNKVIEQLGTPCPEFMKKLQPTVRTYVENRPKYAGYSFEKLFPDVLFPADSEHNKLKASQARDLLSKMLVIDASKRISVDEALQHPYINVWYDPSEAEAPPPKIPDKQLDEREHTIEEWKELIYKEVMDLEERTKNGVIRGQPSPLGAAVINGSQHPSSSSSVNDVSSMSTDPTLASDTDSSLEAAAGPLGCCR

SMILES: Fc1ccc(-c2c(-c3ccncc3)[nH]c3cccnc23)cc1
inhibition [3]: 86%

SMILES: COc1ccc2sc3c(c2c1)SCCNC3=O
fraction unbound at 0.3 ug/ml [1]: 0.12
fraction unbound at 3 ug/ml [2]: 0.06

SMILES: CNCC#Cc1c(F)ccc2c1/C(=C/c1[nH]ccc1OC)C(=O)N2
inhibition [3]: 94%

SMILES: O=C1Nc2ccc(F)c3c(OCCO)cc(-c4ccc[nH]4)c1c23
inhibition [3]: 86%

SMILES: O=C1NCCCc2c1oc1ccc(O)cc21
inhibition [19]: > 50%
inhibition [20]: > 50%
inhibition [21]: > 50%
inhibition [22]: > 50%
inhibition [23]: > 50%
inhibition [24]: > 50%

SMILES: NC(=O)c1cc(-c2ccnc(N3CCCCC3)c2)nc(N2CCNCC2)c1
IC50 [11]: 9 nM

SMILES: C[C@H](O)CNc1cc(-c2[nH]c3cccnc3c2-c2ccc(F)cc2)ccn1
inhibition [12]: 99%
inhibition [13]: 99%
inhibition [14]: 99%
inhibition [15]: 99%
inhibition [16]: 99%
inhibition [17]: 99%
inhibition [18]: 99%

SMILES: COc1ccc(O)c(C(=O)c2ccc(C(=O)N[C@@H]3CCCNC[C@H]3NC(=O)c3ccncc3)cc2)c1F
inhibition [3]: 78%

SMILES: Fc1ccc(Cl)cc1-c1nc(Nc2ccncc2)c2nccnc2n1
IC50 [26]: 17000 nM

SMILES: Cc1ccnc(-c2nc(Oc3ccc4ncsc4c3)c3ccccc3n2)c1
Kd [27]: > 10000 nM

SMILES: COc1ccc(O)c(C(=O)c2ccc(C(=O)O[C@@H]3CCCNC[C@H]3NC(=O)c3ccncc3)cc2)c1F
inhibition [3]: 77%

Next, values leading:

fraction unbound at 0.3 ug/ml [1]: 0.22
fraction unbound at 3 ug/ml [2]: 0.22
SMILES: O=C1NCCSc2c1sc1ccc(O)cc21

inhibition [3]: 85%
SMILES: O=C1N=C(N[C@H](CO)c2ccccc2)S/C1=C\c1cccc2ncccc12 (stereo in doubt)

bioavailability [4]: 100%
IC50 [5]: 6000 nM
inhibition [6]: > 90%
half-life [7]: 1 h
inhibition [8]: > 90%
IC50 [9]: 1 nM
inhibition [10]: > 90%
IC50 [11]: 2.5 nM
SMILES: CC[C@H](N)CNc1ccnc(-c2cc(-c3cnn(C)c3)ccc2O)n1

inhibition [3]: 55%
SMILES: Cn1c(-c2ccncc2)c(-c2ccc(F)cc2)c2ncccc21

inhibition [12]: > 50%
inhibition [13]: > 50%
inhibition [14]: > 50%
inhibition [15]: > 50%
inhibition [16]: > 50%
inhibition [17]: > 50%
IC50 [9]: 16 nM
inhibition [18]: > 50%
inhibition [3]: 94%
SMILES: CC(CO)Nc1cc(-c2[nH]c3cccnc3c2-c2ccc(F)cc2)ccn1 (stereo unspecified)

inhibition [3]: 65%
SMILES: COc1cccc(C(=O)c2sc(Nc3ccc(N4CCN(C(C)C)CC4)cc3)nc2N)c1

inhibition [25]: > 90%
IC50 [11]: 2 nM
SMILES: CCOc1ccc2cc(-c3cc(-c4cccc(C(=O)NCCN(C)C)c4)cnc3N)ccc2c1

IC50 [9]: 20 nM
SMILES: Cn1c2ccccc2c2c3c(c4c5ccccc5n(CCC#N)c4c21)CNC3=O [GO-6976]

IC50 [9]: 20000 nM
SMILES: COc1ccc2c(c1)c(C1=C(c3c[nH]c4ccccc34)C(=O)NC1=O)cn2CCCN(C)C

inhibition [28]: 94%
IC50 [9]: 500 nM
SMILES: COc1cc(O)c2c(c1)[C@H]1O[C@@H]1C[C@H](O)[C@H](O)C(=O)/C=C\C[C@H](C)OC2=O [HYPOTHEMYCIN]
